Source: ChEMBL document CHEMBL5257152, “Antiproliferative activity and toxicity evaluation of 1,2,3-triazole and 4-methyl coumarin hybrids in the MCF7 breast cancer cell line” (RSC Med Chem, 2023)
Calls of active or inactive are those of the source. The calls are words filed in the database; no cut-off is given here.

Legend:
[1] = Cytotoxicity against mouse 3T3 cells assessed as reduction in cell viability measured after 24 hrs; type: toxicity, cell-based; settings: NIH3T3 cells
[2] = Selectivity index, ratio of IC50 for mouse 3T3 cells to IC50 for human A549 cells; type: toxicity; settings: 3T3 cells and A549 cells, read-out: Ratio IC50
[3] = Selectivity index, ratio of IC50 for mouse 3T3 cells to IC50 for human MCF7 cells; type: toxicity; settings: 3T3 cells and MCF7 cells, read-out: Ratio IC50
NIH3T3 [4] = test: Induction of apoptosis in mouse 3T3 cells assessed as increase in necrotic cells at 0.1 to 1 microM incubated for 24 hrs by Annexin V/PI staining based fluorescence microscopic analysis; type: toxicity, cell-based; settings: nih3t3, 24 h, dose 0.1-1 µM
J774.A1 = test: Cytotoxicity against mouse J774.A1 cells assessed as reduction in cell viability measured after 24 hrs; type: functional, cell-based; settings: J774.A1, 24 h
[5] = Selectivity index, ratio of IC50 for mouse 3T3 cells to IC50 for human HepG2 cells; type: toxicity; settings: 3T3 cells and HepG2 cells, read-out: Ratio IC50
NIH3T3 [6] = test: Induction of apoptosis in mouse 3T3 cells assessed as increase in early apoptotic cells at 0.1 to 1 microM incubated for 24 hrs by Annexin V/PI staining based fluorescence microscopic analysis; type: toxicity, cell-based; settings: nih3t3, 24 h, dose 0.1-1 µM
MCF7 [7] = test: Potency index, ratio of hymecromone IC50 to test compound IC50 for cytotoxicity against human MCF7 cells assessed as reduction in cell viability measured after 24 hrs; type: functional
MCF7 [8] = test: Cytotoxicity against human MCF7 cells assessed as reduction in cell viability measured after 24 hrs; type: functional, cell-based; settings: MCF7, 24 h
[9] = Genotoxicity in mouse 3T3 cells assessed as cell death at 0.1 to 5 microM incubated for 24 hrs by LMW comet assay; type: toxicity, cell-based; settings: nih3t3, 24 h, dose 0.1-5 µM
SiHa = test: Cytotoxicity against human SiHa cells assessed as reduction in cell viability measured after 24 hrs; type: functional, cell-based
NIH3T3 [10] = test: Antioxidant activity in mouse 3T3 cells assessed as reduction in ROS level at 0.1 to 5 uM incubated for 24 hrs by DCFH-DA dye based fluorescence microplate reader analysis; type: functional, cell-based; settings: dose 0.1-5 µM
[11] = Selectivity index, ratio of IC50 for mouse 3T3 cells to IC50 for human SiHa cells; type: toxicity; settings: 3T3 cells and SiHa cells, read-out: Ratio IC50
[12] = Genotoxicity in mouse 3T3 cells assessed as primary DNA damage at 0.1 to 5 microM incubated for 24 hrs by comet assay; type: toxicity, cell-based; settings: nih3t3, 24 h, dose 0.1-5 µM
HepG2 = test: Cytotoxicity against human HepG2 cells assessed as reduction in cell viability measured after 24 hrs; type: functional, cell-based; settings: HepG2, 24 h
[13] = Cytotoxicity against human OVCAR cells assessed as reduction in cell viability measured after 24 hrs; type: functional, cell-based
A549 = test: Cytotoxicity against human A549 cells assessed as reduction in cell viability measured after 24 hrs; type: functional, cell-based; settings: A549, 24 h
NIH3T3 [14] = test: Disruption of mitochondrial membrane potential in mouse 3T3 cells at 0.1 to 5 uM incubated for 24 hrs by […] inclusion assay; type: toxicity, cell-based; settings: nih3t3, 24 h, dose 0.1-5 µM
[15] = Selectivity index, ratio of IC50 for mouse 3T3 cells to IC50 for human OVCAR cells
RAW264.7 = test: Cytotoxicity against mouse RAW264.7 cells assessed as reduction in cell viability measured after 24 hrs; type: functional, cell-based; settings: RAW264.7, 24 h
[16] = Selectivity index, ratio of IC50 for mouse 3T3 cells to IC50 for mouse RAW264.7 cells
[17] = Selectivity index, ratio of IC50 for mouse 3T3 cells to IC50 for mouse J774.A1 cells
NIH3T3 [18] = test: Induction of apoptosis in mouse 3T3 cells assessed as increase in late apoptotic cells at 1 microM incubated for 24 hrs by Annexin V/PI staining based fluorescence microscopic analysis; type: toxicity, cell-based; settings: nih3t3, 24 h
NIH3T3 [19] = test: Cytotoxicity against mouse 3T3 cells assessed as reduction in cell viability at 40 uM measured after 24 hrs relative to control; type: toxicity, cell-based; settings: nih3t3, 24 h
[20] = Antioxidant activity assessed as DPPH radical scavenging activity measured at 50 to 600 sec by spectrophotometric analysis; type: functional

SMILES | IC50 at 24 h [1] [µM] | selectivity ratio [2] | selectivity ratio [3] | Activity (NIH3T3 [4]) | IC50 (J774.A1) [µM] | selectivity ratio [5] | Activity (NIH3T3 [6]) | Ratio IC50 (MCF7 [7]) | IC50 (MCF7 [8]) [µM] | Activity [9] | IC50 (SiHa) [µM] | Activity (NIH3T3 [10]) | selectivity ratio [11] | Activity [12] | IC50 (HepG2) [µM] | IC50 [13] [µM] | IC50 (A549) [µM] | Activity (NIH3T3 [14]) | Ratio IC50 [15] | Ratio IC50 [17] | other results
Cc1cc(=O)oc2cc(OCCn3cc(CCN4C(=O)c5ccccc5C4=O)nn3)ccc12 | 0.62 | 0.007 | 0.233 | Non-Toxic | 39.5 | 0.007 | Toxic | 5 | 2.66 | Non-Toxic | > 100 | inactive | < 0.001 | Non-Toxic | 87.6 | 91.3 | 80.8 | Toxic | – | – | –
Cc1cc(=O)oc2cc(OCCn3cc(CO)nn3)ccc12 | 5.21 | 0.017 | 0.516 | Non-Toxic | > 100 | 0.031 | Toxic | 5 | 10.1 | Non-Toxic | > 100 | Active | 0.002 | Non-Toxic | > 100 | > 100 | > 100 | Non-Toxic | < 0.001 | 0.037 | IC50 (RAW264.7): 5.08 µM; Ratio IC50 [16]: 0.025
Cc1cc(=O)oc2cc(OCCn3cc(-c4ccccc4)nn3)ccc12 | 2.41 | 0.007 | 0.845 | Non-Toxic | 33 | 0.014 | Toxic | 5 | 2.85 | Non-Toxic | > 100 | inactive | < 0.001 | Non-Toxic | > 100 | > 100 | > 100 | Toxic | 0.004 | 0.072 | Activity (NIH3T3 [18]): Toxic
Cc1cc(=O)oc2cc(OCCn3cc(COc4cccc5c(C)cc(=O)oc45)nn3)ccc12 | > 40 | 0.175 | > 7.93 | Non-Toxic | > 100 | 0.221 | Toxic | 5 | 5.04 | Non-Toxic | > 100 | Active | 0.001 | Non-Toxic | 88.3 | > 100 | > 100 | Toxic | 0.012 | 0.001 | Activity (NIH3T3 [19]): Non-Toxic; IC50 (RAW264.7): 8.37 µM; Ratio IC50 [16]: 2.33
Cc1cc(=O)oc2c(O)c(O)ccc12 [4-METHYLDAPHNETIN] | – | – | – | – | – | – | – | – | – | – | – | – | – | – | – | – | – | – | – | – | IC50 [20]: 33.5 µM
Cc1cc(=O)oc2cc(O)ccc12 [HYMECROMONE] | 24 | 0.155 | 0.438 | Non-Toxic | > 100 | 0.161 | Toxic | – | 54.8 | Non-Toxic | > 100 | Active | 0.011 | Non-Toxic | > 100 | > 100 | > 100 | Non-Toxic | 0.021 | 0.171 | –
Cc1cc(=O)oc2c(O)c(O)cc(C(=O)O)c12 | – | – | – | – | – | – | – | – | – | – | – | – | – | – | – | – | – | – | – | – | IC50 [20]: 17.5 µM
O=c1ccc2cc(O)c(O)cc2o1 [ESCULETIN] | – | – | – | – | – | – | – | – | – | – | – | – | – | – | – | – | – | – | – | – | IC50 [20]: 25.2 µM
